From ChEMBL document CHEMBL3885881, “DrugMatrix”

Species: Rattus norvegicus
Test: DrugMatrix - Regimen: Daily Repeat
Assay type: toxicity, organism-based, Sprague-Dawley
Set-up: regimen Daily Repeat, gender Male, age 6-8 weeks
Conditions: in vivo, po, route oral GAVAGE, vehicle 100 % WATER; for ABSOLUTE BASOPHIL / ABSOLUTE EOSINOPHIL / ABSOLUTE LYMPHOCYTE / ABSOLUTE MONOCYTE / ABSOLUTE SEGMENTED NEUTROPHIL / BASOPHIL / EOSINOPHIL / ERYTHROCYTE COUNT / HEMATOCRIT / HEMOGLOBIN / LEUKOCYTE COUNT / LYMPHOCYTE / MEAN CORPUSCULAR HEMOGLOBIN / MEAN CORPUSCULAR HEMOGLOBIN CONCENTRATION / MEAN CORPUSCULAR VOLUME / MONOCYTE / NEUTROPHIL / NUCLEATED RED BLOOD CELLS / PLATELET COUNT: tissue Blood; for ALANINE AMINOTRANSFERASE / ALBUMIN / ALKALINE PHOSPHATASE / ASPARTATE AMINOTRANSFERASE / BLOOD UREA NITROGEN / CARBON DIOXIDE / CHLORIDE / CHOLESTEROL / CREATINE PHOSPHOKINASE / CREATININE / GLUCOSE / LACTATE DEHYDROGENASE / LIPASE / PHOSPHORUS / POTASSIUM / SODIUM / TOTAL BILIRUBIN / TOTAL PROTEIN / URIC ACID: tissue Plasma
[1] = 0 mg/kg, 72 h, dose level Control, time 3 day
[2] = 0 mg/kg, 120 h, dose level Control, time 5 day
[3] = 5 mg/kg, 72 h, dose level Low, time 3 day

## C[N+](C)(C)CCOC(N)=O.[Cl-] [CARBACHOL]
[1]
  ABSOLUTE BASOPHIL: 0 CELLS/uL
  ABSOLUTE EOSINOPHIL: 0 CELLS/uL
  ABSOLUTE LYMPHOCYTE: 8482.5 CELLS/uL
  ABSOLUTE MONOCYTE: 63.83 CELLS/uL
  ABSOLUTE SEGMENTED NEUTROPHIL: 887 CELLS/uL
  BASOPHIL: 0%
  EOSINOPHIL: 0%
  ERYTHROCYTE COUNT: 5.49 x10E6/uL
  HEMATOCRIT: 34.5%
  HEMOGLOBIN: 13.33 G/DL
  LEUKOCYTE COUNT: 9.43 x10E3/uL
  LYMPHOCYTE: 90.17%
  MEAN CORPUSCULAR HEMOGLOBIN: 24.3 pg
  MEAN CORPUSCULAR HEMOGLOBIN CONCENTRATION: 38.63 G/DL
  MEAN CORPUSCULAR VOLUME: 62.88 fL
  MONOCYTE: 0.67%
  NEUTROPHIL: 9.17%
  NUCLEATED RED BLOOD CELLS: 0.67 /100WBC
  PLATELET COUNT: 1022.83 x10E3/uL
  ALANINE AMINOTRANSFERASE: 50.5 u/L
  ALBUMIN: 4.08 G/DL
  ALKALINE PHOSPHATASE: 368.33 u/L
  ASPARTATE AMINOTRANSFERASE: 87.5 u/L
  BLOOD UREA NITROGEN: 12.83 mg/dL
  CARBON DIOXIDE: 32.83 mmol/L
  CHLORIDE: 99.67 MEQ/L
  CHOLESTEROL: 79.67 mg/dL
  CREATINE PHOSPHOKINASE: 585 u/L
  CREATININE: 0.22 mg/dL
  GLUCOSE: 135.67 mg/dL
  LACTATE DEHYDROGENASE: 171 u/L
  LIPASE: 9.5 u/L
  PHOSPHORUS: 11.18 mg/dL
  POTASSIUM: 6.25 MEQ/L
  SODIUM: 144.87 MEQ/L
  TOTAL BILIRUBIN: 0.2 mg/dL
  TOTAL PROTEIN: 6.08 G/DL
  URIC ACID: 0.65 mg/dL
[2]
  ABSOLUTE BASOPHIL: 0 CELLS/uL
  ABSOLUTE EOSINOPHIL: 14.5 CELLS/uL
  ABSOLUTE LYMPHOCYTE: 7596.17 CELLS/uL
  ABSOLUTE MONOCYTE: 69.67 CELLS/uL
  ABSOLUTE SEGMENTED NEUTROPHIL: 503 CELLS/uL
  BASOPHIL: 0%
  EOSINOPHIL: 0.17%
  ERYTHROCYTE COUNT: 5.49 x10E6/uL
  HEMATOCRIT: 34.72%
  HEMOGLOBIN: 13.47 G/DL
  LEUKOCYTE COUNT: 8.18 x10E3/uL
  LYMPHOCYTE: 92.17%
  MEAN CORPUSCULAR HEMOGLOBIN: 24.57 pg
  MEAN CORPUSCULAR HEMOGLOBIN CONCENTRATION: 38.82 G/DL
  MEAN CORPUSCULAR VOLUME: 63.3 fL
  MONOCYTE: 1%
  NEUTROPHIL: 6.67%
  NUCLEATED RED BLOOD CELLS: 0 /100WBC
  PLATELET COUNT: 1141 x10E3/uL
  ALANINE AMINOTRANSFERASE: 48.33 u/L
  ALBUMIN: 4.07 G/DL
  ALKALINE PHOSPHATASE: 395.67 u/L
  ASPARTATE AMINOTRANSFERASE: 85.67 u/L
  BLOOD UREA NITROGEN: 15.83 mg/dL
  CARBON DIOXIDE: 31.33 mmol/L
  CHLORIDE: 100.83 MEQ/L
  CHOLESTEROL: 62.33 mg/dL
  CREATINE PHOSPHOKINASE: 248.33 u/L
  CREATININE: 0.2 mg/dL
  GLUCOSE: 135.67 mg/dL
  LACTATE DEHYDROGENASE: 141.33 u/L
  LIPASE: 9.5 u/L
  PHOSPHORUS: 10.73 mg/dL
  POTASSIUM: 6.07 MEQ/L
  SODIUM: 145.35 MEQ/L
  TOTAL BILIRUBIN: 0.22 mg/dL
  TOTAL PROTEIN: 6.12 G/DL
  URIC ACID: 0.63 mg/dL
[3]
  ABSOLUTE BASOPHIL: 0 CELLS/uL
  ABSOLUTE EOSINOPHIL: 50.33 CELLS/uL
  ABSOLUTE LYMPHOCYTE: 10617 CELLS/uL
  ABSOLUTE MONOCYTE: 63 CELLS/uL
  ABSOLUTE SEGMENTED NEUTROPHIL: 603 CELLS/uL
  BASOPHIL: 0%
  EOSINOPHIL: 0.33%
  ERYTHROCYTE COUNT: 5.09 x10E6/uL
  HEMATOCRIT: 32.27%
  HEMOGLOBIN: 12.67 G/DL
  LEUKOCYTE COUNT: 11.33 x10E3/uL
  LYMPHOCYTE: 93.67%
  MEAN CORPUSCULAR HEMOGLOBIN: 24.9 pg
  MEAN CORPUSCULAR HEMOGLOBIN CONCENTRATION: 39.3 G/DL
  MEAN CORPUSCULAR VOLUME: 63.33 fL
  MONOCYTE: 0.67%
  NEUTROPHIL: 5.33%
  NUCLEATED RED BLOOD CELLS: 0 /100WBC
  PLATELET COUNT: 1098.33 x10E3/uL
  ALANINE AMINOTRANSFERASE: 65.67 u/L
  ALBUMIN: 3.93 G/DL
  ALKALINE PHOSPHATASE: 297.33 u/L
  ASPARTATE AMINOTRANSFERASE: 89.67 u/L
  BLOOD UREA NITROGEN: 12 mg/dL
  CARBON DIOXIDE: 33.67 mmol/L
  CHLORIDE: 98.33 MEQ/L
  CHOLESTEROL: 74.67 mg/dL
  CREATINE PHOSPHOKINASE: 369.33 u/L
  CREATININE: 0.19 mg/dL
  GLUCOSE: 134 mg/dL
  LACTATE DEHYDROGENASE: 123 u/L
  LIPASE: 11 u/L
  PHOSPHORUS: 11.1 mg/dL
  POTASSIUM: 5.93 MEQ/L
  SODIUM: 144.17 MEQ/L
  TOTAL BILIRUBIN: 0.13 mg/dL
  TOTAL PROTEIN: 5.83 G/DL
  URIC ACID: 0.53 mg/dL
